Assay results taken from patent US20230339889A1, “DERIVATIVES OF 2-OXO-N-(4-(PYRIMIDIN-4-YLOXY/THIO)PHENYL)-1,2-DIHYDROPYRIDINE-3-CARBOXAMIDE FOR USE AS PROTEIN KINASE INHIBITORS FOR THERAPY” (AUCENTRA THERAPEUTICS PTY LTD, priority 2020, published 2023).

Assays:
[1] = target: T1, Mer (Homo sapiens, UniProt Q12866); test: Filter-binding radiometric kinase activity assay (KinaseProfiler, Eurofins); assay type: biochemical; settings: 1 µM compound; read-out: % Residual enzymatic activity at 1 µM Mer
T1 construct: purchased Eurofins Discovery (Kinase Profiler service)
T1 sequence (Q12866 21-999): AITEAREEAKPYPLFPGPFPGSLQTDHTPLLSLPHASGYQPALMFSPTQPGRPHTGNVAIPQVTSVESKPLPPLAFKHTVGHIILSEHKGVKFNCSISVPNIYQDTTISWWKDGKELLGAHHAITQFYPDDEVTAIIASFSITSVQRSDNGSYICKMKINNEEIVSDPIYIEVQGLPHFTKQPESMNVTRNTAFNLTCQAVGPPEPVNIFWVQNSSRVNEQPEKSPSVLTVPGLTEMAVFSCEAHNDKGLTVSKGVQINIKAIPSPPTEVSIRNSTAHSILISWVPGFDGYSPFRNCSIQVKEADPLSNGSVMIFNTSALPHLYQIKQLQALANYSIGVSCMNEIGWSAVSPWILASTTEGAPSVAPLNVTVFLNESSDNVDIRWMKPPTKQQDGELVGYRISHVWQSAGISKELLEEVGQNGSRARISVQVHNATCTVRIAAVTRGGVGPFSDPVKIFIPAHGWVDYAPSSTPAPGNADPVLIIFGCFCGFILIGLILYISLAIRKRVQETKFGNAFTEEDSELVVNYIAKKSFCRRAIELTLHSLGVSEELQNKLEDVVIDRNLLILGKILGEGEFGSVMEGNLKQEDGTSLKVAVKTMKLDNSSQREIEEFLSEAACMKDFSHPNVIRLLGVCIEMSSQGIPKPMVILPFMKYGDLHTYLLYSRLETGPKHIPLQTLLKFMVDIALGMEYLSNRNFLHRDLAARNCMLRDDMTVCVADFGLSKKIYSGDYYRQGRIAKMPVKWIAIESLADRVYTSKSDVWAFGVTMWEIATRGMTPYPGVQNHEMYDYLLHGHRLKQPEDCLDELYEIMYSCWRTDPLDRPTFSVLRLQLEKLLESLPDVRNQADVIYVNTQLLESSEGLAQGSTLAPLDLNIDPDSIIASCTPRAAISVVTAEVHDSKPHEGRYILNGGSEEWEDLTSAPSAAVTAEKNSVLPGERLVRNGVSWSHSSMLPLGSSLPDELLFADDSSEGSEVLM
Procedure: (§1) Filter-binding radiometric kinase activity assay (Kinase Profiler™) from Eurofins Discovery was used to determine the % of inhibition and/or IC50 values. […] The reaction is initiated by the addition of the Mg/ATP mixture. After incubation for 40 minutes at room temperature, the reaction is stopped by the addition of phosphoric acid to a concentration of 0.5%. 10 µL of the reaction is then spotted onto a P30 filter mat and washed four times for 4 minutes in 0.425% phosphoric acid and once in methanol prior to drying and scintillation counting. The IC50 values were derived by fitting a sigmoidal dose-response curve to a plot of assay readout over inhibitor concentration. All fits were computed with the GraphPad Prism Software (San Diego, CA, United States of America). Ki values were derived from IC5o values using Cheng Prusoff equation (Cheng Y et al., Biochem Pharmacol 22(23):3099-3108, 1973).

[2] = target: T2, MET (Homo sapiens, UniProt P08581); test: as above; assay type: biochemical; settings: 1 µM compound; read-out: % Residual enzymatic activity at 1 µM MET
T2 construct: purchased Eurofins Discovery (Kinase Profiler service)
Procedure: as §1

[3] = target: T3, AXL (Homo sapiens, UniProt P30530); test: as above; assay type: biochemical; settings: 1 µM compound; read-out: % Residual enzymatic activity at 1 µM AXL
T3 construct: purchased Eurofins Discovery (Kinase Profiler service)
T3 sequence (P30530 26-894): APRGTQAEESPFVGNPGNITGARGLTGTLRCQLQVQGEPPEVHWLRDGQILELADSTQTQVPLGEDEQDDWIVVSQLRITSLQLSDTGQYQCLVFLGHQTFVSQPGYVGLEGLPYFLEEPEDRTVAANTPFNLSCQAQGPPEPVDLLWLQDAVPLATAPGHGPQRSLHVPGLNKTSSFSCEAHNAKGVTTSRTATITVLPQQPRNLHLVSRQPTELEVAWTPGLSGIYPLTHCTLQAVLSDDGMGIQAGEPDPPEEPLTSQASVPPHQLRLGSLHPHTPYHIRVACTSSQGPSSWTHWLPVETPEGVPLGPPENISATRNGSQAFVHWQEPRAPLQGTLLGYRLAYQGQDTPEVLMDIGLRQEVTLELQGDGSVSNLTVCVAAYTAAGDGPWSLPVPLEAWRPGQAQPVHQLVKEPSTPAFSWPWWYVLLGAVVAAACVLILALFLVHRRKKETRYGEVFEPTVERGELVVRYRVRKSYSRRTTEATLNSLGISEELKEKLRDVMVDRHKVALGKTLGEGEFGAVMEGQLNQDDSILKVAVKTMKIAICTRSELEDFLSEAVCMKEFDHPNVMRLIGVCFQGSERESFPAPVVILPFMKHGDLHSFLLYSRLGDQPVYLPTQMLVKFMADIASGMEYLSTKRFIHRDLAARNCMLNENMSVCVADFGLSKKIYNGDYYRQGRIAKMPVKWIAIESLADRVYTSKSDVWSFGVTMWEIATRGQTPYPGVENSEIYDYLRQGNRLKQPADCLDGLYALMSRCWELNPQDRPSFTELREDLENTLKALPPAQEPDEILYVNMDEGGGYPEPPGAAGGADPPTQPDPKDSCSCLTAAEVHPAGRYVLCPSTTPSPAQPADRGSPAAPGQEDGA
Procedure: as §1

[4] = target: T4, TYRO3 (Homo sapiens, UniProt Q06418); test: as above; assay type: biochemical; settings: 1 µM compound; read-out: % Residual enzymatic activity at 1 µM TYRO3
T4 construct: purchased Eurofins Discovery (Kinase Profiler service)
T4 sequence (Q06418 41-890): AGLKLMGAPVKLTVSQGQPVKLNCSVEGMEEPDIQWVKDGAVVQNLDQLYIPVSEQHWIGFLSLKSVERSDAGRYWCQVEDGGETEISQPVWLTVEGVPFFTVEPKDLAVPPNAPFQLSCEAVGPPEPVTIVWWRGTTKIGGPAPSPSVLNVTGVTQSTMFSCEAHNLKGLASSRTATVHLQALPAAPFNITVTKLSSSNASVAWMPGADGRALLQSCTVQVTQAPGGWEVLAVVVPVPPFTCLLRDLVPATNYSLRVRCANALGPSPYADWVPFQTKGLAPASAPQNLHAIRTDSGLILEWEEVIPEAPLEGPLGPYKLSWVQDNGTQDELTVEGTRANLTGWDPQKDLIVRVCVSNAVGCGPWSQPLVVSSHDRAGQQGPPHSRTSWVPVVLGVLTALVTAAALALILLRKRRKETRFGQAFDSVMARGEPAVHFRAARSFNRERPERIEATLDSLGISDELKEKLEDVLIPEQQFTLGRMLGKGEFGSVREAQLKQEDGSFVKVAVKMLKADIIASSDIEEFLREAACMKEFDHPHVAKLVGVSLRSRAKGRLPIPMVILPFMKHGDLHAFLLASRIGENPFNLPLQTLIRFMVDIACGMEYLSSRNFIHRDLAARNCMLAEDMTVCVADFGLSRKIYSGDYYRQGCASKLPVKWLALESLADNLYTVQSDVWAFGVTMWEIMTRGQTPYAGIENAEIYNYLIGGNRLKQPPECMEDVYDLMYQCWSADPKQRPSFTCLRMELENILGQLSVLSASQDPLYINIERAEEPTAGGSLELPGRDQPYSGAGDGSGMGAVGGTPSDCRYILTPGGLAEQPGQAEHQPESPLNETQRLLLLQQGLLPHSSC
Procedure: as §1

[5] = test system: MV4-11; test: Proliferation assay (MTT, leukaemia cancer cell line); assay type: cell-based; settings: Homo sapiens; 1 µM compound, MV4-11 cells
Text: Compounds from Example 1 were subjected to standard resazurin and MTT assays on solid tumour and leukaemia cancer cell lines, respectively, as previously reported (Wang S et al., J Med Chem 47:1662-1675, 2004 and Diab S et al., CheMedChem 9:962-972, 2014).

[6] = target: CDK2E (Homo sapiens, UniProt P24941); test: ADP Glo Kinase assay; assay type: biochemical; settings: 1 µM compound; read-out: % Residual enzymatic activity at 1 µM CDK2E
Procedure: Inhibition of CDKs and FLT3 were determined using ADP Glo Kinase assays, as previously described in International Patent Publication No WO 2017/020065.

T2 sequence (P08581 25-1390): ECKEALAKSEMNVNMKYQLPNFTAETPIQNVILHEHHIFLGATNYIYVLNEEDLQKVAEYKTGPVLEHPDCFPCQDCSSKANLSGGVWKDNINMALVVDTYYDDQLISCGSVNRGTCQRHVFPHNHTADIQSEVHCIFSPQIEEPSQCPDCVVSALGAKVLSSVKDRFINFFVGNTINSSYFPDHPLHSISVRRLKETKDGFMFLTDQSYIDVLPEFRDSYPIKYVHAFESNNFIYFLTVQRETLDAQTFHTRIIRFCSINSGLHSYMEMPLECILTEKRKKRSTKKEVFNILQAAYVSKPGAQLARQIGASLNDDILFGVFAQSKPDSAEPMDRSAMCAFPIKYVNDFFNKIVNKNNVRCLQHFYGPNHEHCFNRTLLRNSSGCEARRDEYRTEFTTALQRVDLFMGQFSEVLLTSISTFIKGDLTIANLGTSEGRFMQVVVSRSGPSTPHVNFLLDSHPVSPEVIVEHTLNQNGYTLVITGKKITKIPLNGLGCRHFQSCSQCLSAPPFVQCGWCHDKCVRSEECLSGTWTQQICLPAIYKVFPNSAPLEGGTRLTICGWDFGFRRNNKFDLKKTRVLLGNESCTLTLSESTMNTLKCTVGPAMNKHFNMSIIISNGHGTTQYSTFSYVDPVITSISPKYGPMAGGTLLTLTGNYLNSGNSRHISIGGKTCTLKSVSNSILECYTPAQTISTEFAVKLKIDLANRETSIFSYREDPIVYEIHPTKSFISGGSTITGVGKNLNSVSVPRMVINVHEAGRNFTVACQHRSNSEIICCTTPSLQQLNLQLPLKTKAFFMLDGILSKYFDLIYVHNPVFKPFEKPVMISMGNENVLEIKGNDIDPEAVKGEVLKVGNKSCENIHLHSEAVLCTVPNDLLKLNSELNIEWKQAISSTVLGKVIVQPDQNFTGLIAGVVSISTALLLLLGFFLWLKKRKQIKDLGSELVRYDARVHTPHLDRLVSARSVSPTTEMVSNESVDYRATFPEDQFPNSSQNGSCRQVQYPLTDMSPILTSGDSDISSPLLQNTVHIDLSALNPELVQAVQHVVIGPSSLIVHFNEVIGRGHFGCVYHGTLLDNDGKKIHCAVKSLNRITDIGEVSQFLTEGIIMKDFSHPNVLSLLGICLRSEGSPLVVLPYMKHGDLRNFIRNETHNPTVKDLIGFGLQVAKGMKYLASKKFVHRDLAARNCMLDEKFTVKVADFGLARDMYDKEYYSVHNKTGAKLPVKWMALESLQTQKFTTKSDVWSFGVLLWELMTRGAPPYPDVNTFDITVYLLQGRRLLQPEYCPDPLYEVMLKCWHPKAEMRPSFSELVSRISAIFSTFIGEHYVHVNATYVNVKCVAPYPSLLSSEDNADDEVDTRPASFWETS

SMILES	remaining activity at 1 µM [1] [%]	remaining activity at 1 µM [2] [%]	remaining activity at 1 µM [3] [%]	remaining activity at 1 µM [4] [%]	activity at 1 µM [5] [%]	remaining activity at 1 µM [6] [%]
Cc1ccc(-n2cccc(C(=O)Nc3ccc(Oc4ncnc(N)c4Cl)cc3F)c2=O)cc1 [Cmpd 15, N-(4-((6-amino-5-chloropyrimidin-4-yl)oxy)-2-fluorophenyl)-2-oxo-1-(p-tolyl)-1,2-dihydropyridine-3-carboxamide]	99	74	64	39	26	–
Nc1ncnc(Sc2ccc(NC(=O)c3cccn(-c4ccc(F)cc4)c3=O)cc2F)c1Cl [Cmpd 17, N-(4-((6-amino-5-chloropyrimidin-4-yl)thio)-3-fluorophenyl)-1-(4-fluorophenyl)-2-oxo-1,2-dihydropyridine-3-carboxamide]	81	65	55	52	4	101
Nc1ncnc(Sc2ccc(NC(=O)c3cccn(-c4ccc(F)cc4)c3=O)cc2F)c1F [Cmpd 19, N-(4-((6-amino-5-fluoropyrimidin-4-yl)thio)-3-fluorophenyl)-1-(4-fluorophenyl)-2-oxo-1,2-dihydropyridine-3-carboxamide]	99	78	84	89	6	93
Nc1ncnc(Oc2cc(F)c(NC(=O)c3cccn(-c4ccc(F)cc4)c3=O)cc2F)c1F [Cmpd 20, N-(4-((6-amino-5-fluoropyrimidin-4-yl)oxy)-2,5-difluorophenyl)-1-(4-fluorophenyl)-2-oxo-1,2-dihydropyridine-3-carboxamide]	54	4	31	2	5	93
Nc1ncc(Cl)c(Oc2ccc(NC(=O)c3cccn(-c4ccc(F)cc4)c3=O)cc2F)n1 [Cmpd 24, N-(4-((2-amino-5-chloropyrimidin-4-yl)oxy)-3-fluorophenyl)-1-(4-fluorophenyl)-2-oxo-1,2-dihydropyridine-3-carboxamide]	87	74	99	94	27	–
Nc1ncc(Cl)c(Oc2ccc(NC(=O)c3cccn(-c4ccc(F)cc4)c3=O)c(F)c2)n1 [Cmpd 25, N-(4-((2-amino-5-chloropyrimidin-4-yl)oxy)-2-fluorophenyl)-1-(4-fluorophenyl)-2-oxo-1,2-dihydropyridine-3-carboxamide]	88	87	92	89	65	–
Nc1ncnc(Oc2ccc(NC(=O)c3cccn(-c4ccc(Cl)cc4)c3=O)c(F)c2)c1Cl [Cmpd 33, N-(4-((6-amino-5-chloropyrimidin-4-yl)oxy)-2-fluorophenyl)-1-(4-chlorophenyl)-2-oxo-1,2-dihydropyridine-3-carboxamide]	74	10	23	6	1	82
Nc1ncnc(Sc2ccc(NC(=O)c3cccn(-c4ccc(F)cc4)c3=O)c(F)c2)c1Cl [Cmpd 39, N-(4-((6-amino-5-chloropyrimidin-4-yl)thio)-2-fluorophenyl)-1-(4-fluorophenyl)-2-oxo-1,2-dihydropyridine-3-carboxamide]	82	70	87	–	4	88
